Measurements from US6458337B1, “Diagnostic imaging contrast agent with improved in serum relaxivity” (Dibra S.p.A, priority 1996, dated 2002).

Tests used:
[1] = Relaxivity (r1, r2) in saline; assay type: physicochemical; conditions: NaCl 0.15 M in water, pH 7.3, 20 MHz, 39° C.
Text: (§1) Relaxivity values of the contrast agent of the present invention have been tested either in saline or in human serum obtained by Seronorm™ Human, freeze-dried human serum produced by Nycomed Pharma AS, Oslo, Norway. Serum obtained from said Seronorm™ is substantially equivalent to the fresh one, so its use in the relaxivity determination grants a good picture of the “in vivo” behaviour and, further, an excellent reproducibility of this test.

[2] = Relaxivity (r1, r2) in reconstituted human serum (Seronorm™ Human); assay type: physicochemical; conditions: Between 0 and 1 mM (Seronorm™ Human), 20 MHz, 39° C.
Text: as §1
The compounds object of the present invention are characterised by very high r1 and r2 relaxivity values. When measured in Seronorm™ Human at 20 MHz, at a temperature of 39° C., and at a concentration comprised from 0 to 1 mM, compounds of the present invention usually have r1 relaxivity equal to or, preferably, higher than 15^s−1mM^−1, thus confirming the formation of unexpectedly strong non-covalent bonds with serum proteins. […] Last, significative amounts of the preferred compounds of the invention have also been found in the urines, showing that, thanks to their binding to HSA, the same are very promising as blood pool diagnostic agents.

O=C(O)CN(CCN(CCN(CC(=O)O)CC(=O)O)C(CCCCNC(=O)C(c1ccccc1)c1ccccc1)C(=O)O)CC(=O)O (centres unmarked)
Relaxivity Saline r1 [1]: 5.70 mM⁻¹ s⁻¹
Relaxivity Serum r1 [2]: 20.1 mM⁻¹ s⁻¹
